Assay [1] relates to HCT-116 cells (human colon carcinoma cell line). In words: MTT cytotoxicity assay, HCT-116. It counts as cell-based. The note with it: HCT-116, MTT, 72 h, read-out: IC50. The text has this:
Colorectal carcinoma cells (HCT-116), chronic myelogenous leukemia (K562), and acute promyelocytic leukemia (HL-60) were generously provided by Dr. Manoel de Moraes (Federal University of Ceará, Fortaleza, Brazil) and cultured in Roswell Park Memorial Institute 1640 (RPMI 1640; Sigma Aldrich, St. Louis, MO, USA) medium supplemented with 10% fetal bovine serum (GIBCO, Grand Island, NY, USA) and 1% penicillin–streptomycin (Sigma Aldrich, St. Louis, MO, USA). Human keratinocyte cells (HaCaT; provided by Dr. Jaciana Aguiar from Federal University of Pernambuco, Recife, Pernambuco, Brazil), cervical cancer cells (HeLa; purchased from the cell bank of Rio de Janeiro, Rio de Janeiro, Brazil), and breast cancer cells (MCF-7; provided by Dr. João Ernesto de Carvalho from University of Campinas, Campinas, São Paulo, Brazil) were grown and maintained in Dulbecco’s Modified Eagle’s Medium (DMEM; Sigma Aldrich, St. Louis, MO, USA) supplemented with 10% fetal bovine serum (GIBCO, Grand Island, NY, USA) and 1% penicillin–streptomycin (Sigma Aldrich, St. Louis, MO, USA). All cell types were maintained in 5% CO2 at 37 °C with humidity.
MTT (3-(4,5-dimethylthiazol-2-yl)-2,5-diphenyltetrazolium bromide) reduction assay was used to evaluate the cytotoxicity of ACS03 and its precursors (2-amino-5,6,7,8-tetrahydro-4H-cyclohepta[b]thiophene-3-carbonitrile and 6,9-dichloro-2-methoxyacridine) against tumor and non-tumor cell lines and PBMC. For the MTT assay, cell lines (3 × 10^5 cells/mL) and PBMC (1 × 10^6 cells/mL) were seeded on 96-well plates and cultured for 24 h. ACS03 (3.125–200 µM) was added to the cell cultures and incubated for 72 h. After incubation, 110 µL of the supernatant was removed and 10 μL of the MTT reagent (Sigma Aldrich, St. Louis, MO, USA) was added to each well, and the plates were then incubated at 37 °C. Following 3 h incubation, 100 μL of sodium dodecyl sulfate (SDS) was added to dissolve the formazan crystals produced and left overnight to incubate. The amount of formazan is proportional to the number of viable cells present. The optical density was measured using a microplate spectrophotometer reader (Microplate reader BioTek Instruments, Sinergy HT, Winooski, VT, USA) at λ = 570 nm and used to calculate the IC50 (half maximal inhibitory concentration).
In general terms: Tetrazolium assays rely on reduction of a dye to a coloured formazan, in cell work by metabolically active cells.

In another assay the test system is nitrite (nitric oxide). Put plainly: Nitrite levels in ascitic fluid, Ehrlich ascites carcinoma model (Griess). The conditions noted are these: peritoneal fluid, 25 mg/kg; control 36.09 ± 0.72 µM. It counts as in vivo, mice (Mus musculus). Here is the method: The nitrite concentration in the ascitic fluid was measured using Griess reagent. For this, the peritoneal fluid of control and treated animals (12.5 mg/kg ACS03 and 25 mg/kg 5-FU) was used. The optical density was measured using a microplate spectrophotometer reader (Microplate reader BioTek Instruments, Sinergy HT, Winooski, VT, USA) at λ = 560 nm. Concentrations of nitrite were calculated from a standard curve previously established with known molar concentrations of sodium nitrite. The tests were done in quadruplicate and the values expressed in µM [51].
In general terms: Griess reagent forms a coloured azo dye with nitrite.

Results on four compounds are retold here after publication PMC6983054, “Toxicity and Antitumor Activity of a Thiophene–Acridine Hybrid” (Molecules, 2019).

The term IC50 denotes the point on the concentration scale where inhibition reaches its midpoint.

Molecules are shown by their SMILES. A value given as a limit tells only on which side of the number the result lay.

Turning to `N#Cc1c(N)sc2c1CCCCC2` [2-amino-thiophene, 2-amino-5,6,7,8-tetrahydro-4H-cyclohepta[b]thiophene-3-carbonitrile], in assay [1], the IC50 is greater than 1000 µM.
`O=c1[nH]cc(F)c(=O)[nH]1` [5-FU, 5-fluorouracil, reference compound] had a nitrite concentration in the assay with nitrite (nitric oxide) of 16.3 ± 2.91 µM.
As to `COc1ccc2nc3cc(Cl)ccc3c(Cl)c2c1` [6,9-diclhoro-2-methoxi-acridine, 6,9-dichloro-2-methoxyacridine], in assay [1], the IC50 came to 202.3 ± 1.19 µM.
Still for that read-out and setting: the figure for `COc1cccc2c1C(=O)c1c(O)c3c(c(O)c1C2=O)C[C@@](O)(C(=O)CO)C[C@@H]3O[C@H]1C[C@H](N)[C@H](O)[C@H](C)O1` [Doxorubicin] is 2.59 µM.
